Laboratory results: patent US6949250B2, “Selective algaecides for control of cyanochloronta” (The United States of America as represented by the …, priority 2002, dated 2005)

Legend:
chlorophyll a = assay: DNA2-59-1 second pond efficacy study: chlorophyll a; format: in vivo; settings: 0.3 μM, for three days after application
Description: (§1) The method described by Schrader et al. (2000) was used to determine the potential for using the anthraquinone derivatives as selective algicides in catfish aquaculture ponds. All catfish ponds used in efficacy tests were maintained using commercial pond management practices and were located at the Thad Cochran Pond Facility, Mississippi State University, Stoneville, Miss. Anthraquinone analogs were dissolved in deionized water before application to water within the limnocorrals.
(§2) Limnocorrals in which test compound was applied to the enclosed water were randomly selected, and control (no test compound applied) limnocorrals were included in each efficacy study. For each sampling, two water samples (250 mL) were obtained from within each limnocorral (approximately 6-8 cm below the water surface and from opposite sides of each limnocorral) and mixed together in a 500 mL sample bottle to provide a representative sample of the water contained within the limnocorral.
(§3) In the second efficacy test with DNA2-59-1, six limnocorrals (1.53 m in diameter and 1.53 m high) were placed in a 0.1-ha earthen pond containing a heavy bloom of O. perornata. The same delay in mixing the water within the limnocorrals used in the first efficacy study was utilized. Water within three randomly selected limnocorrals received an application rate of 0.3 μM DNA2-59-1, and the other three limnocorrals were controls. […]

Oscillatoria agardhii = assay: DNA2-59-1 second pond efficacy study: Oscillatoria agardhii abundance; format: in vivo; settings: 0.3 μM
Description: as §1, §2, §3

CC(C)NCc1ccc2c(c1)C(=O)c1ccccc1C2=O [DNA2-59-1, 2-[methylamino-N-(1′-methylethyl)]-9,10-anthraquinone monophosphate]
Chlorophyll a levels (result in words) (chlorophyll a): significantly lower | Numbers of Oscillatoria agardhii (result in words) (Oscillatoria agardhii): not affected
